Assay results as given in PubChem BioAssay (NCI).
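96-well plates; 48 h exposure; 5 concentrations. Endpoints by linear interpolation between flanking doses. Not reached: highest tested concentration assigned. GI50 marks 50% less growth. TGI marks complete inhibition of growth.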

Experiments:
Assay in all cases: NCI anticancer screen, dose series, 48 h
SN12C renal = test system: SN12C renal
T-47D breast = test system: T-47D breast
HOP-62 NSCLC = test system: HOP-62 NSCLC
OVCAR-4 ovarian = test system: OVCAR-4 ovarian
PC-3 prostate = test system: PC-3 prostate
U251 CNS = test system: U251 CNS
OVCAR-3 ovarian = test system: OVCAR-3 ovarian
A549 NSCLC = test system: A549 NSCLC
DU-145 prostate = test system: DU-145 prostate
MOLT-4 leukemia = test system: MOLT-4 leukemia
UACC-257 melanoma = test system: UACC-257 melanoma
EKVX NSCLC = test system: EKVX NSCLC
RXF 393 renal = test system: RXF 393 renal
TK-10 renal = test system: TK-10 renal
COLO 205 colon = test system: COLO 205 colon
NCI-H23 lung = test system: NCI-H23 lung
SK-MEL-28 melanoma = test system: SK-MEL-28 melanoma
SK-MEL-5 melanoma = test system: SK-MEL-5 melanoma
HCC-2998 colon = test system: HCC-2998 colon
OVCAR-5 ovarian = test system: OVCAR-5 ovarian
CAKI-1 renal = test system: CAKI-1 renal
K-562 leukemia = test system: K-562 leukemia
HCT-116 colon = test system: HCT-116 colon
HL-60(TB) leukemia = test system: HL-60(TB) leukemia
IGROV1 ovarian = test system: IGROV1 ovarian
NCI-H460 lung = test system: NCI-H460 lung
NCI-H522 lung = test system: NCI-H522 lung
SNB-19 CNS = test system: SNB-19 CNS
HOP-92 NSCLC = test system: HOP-92 NSCLC

CC1=C(C(=O)Nc2ccc3[nH]ncc3c2)C(c2ccc(F)cc2)NC(=O)N1 (stereo not drawn)
GI50 (SN12C renal): > 25 µM
TGI (SN12C renal): > 25 µM
GI50 (T-47D breast): > 25 µM
TGI (T-47D breast): > 25 µM
GI50 (HOP-62 NSCLC): > 25 µM
TGI (HOP-62 NSCLC): > 25 µM
GI50 (OVCAR-4 ovarian): > 25 µM
TGI (OVCAR-4 ovarian): > 25 µM
GI50 (PC-3 prostate): > 25 µM
TGI (PC-3 prostate): > 25 µM
GI50 (U251 CNS): > 25 µM
TGI (U251 CNS): > 25 µM
GI50 (OVCAR-3 ovarian): > 25 µM
TGI (OVCAR-3 ovarian): > 25 µM
GI50 (A549 NSCLC): > 25 µM
TGI (A549 NSCLC): > 25 µM
GI50 (DU-145 prostate): > 25 µM
TGI (DU-145 prostate): > 25 µM
GI50 (MOLT-4 leukemia): > 25 µM
TGI (MOLT-4 leukemia): > 25 µM
GI50 (UACC-257 melanoma): > 25 µM
TGI (UACC-257 melanoma): > 25 µM
GI50 (EKVX NSCLC): > 25 µM
TGI (EKVX NSCLC): > 25 µM
GI50 (RXF 393 renal): > 14.6 µM
TGI (RXF 393 renal): > 25 µM
GI50 (TK-10 renal): > 25 µM
TGI (TK-10 renal): > 25 µM
GI50 (COLO 205 colon): > 25 µM
TGI (COLO 205 colon): > 25 µM
GI50 (NCI-H23 lung): > 25 µM
TGI (NCI-H23 lung): > 25 µM
GI50 (SK-MEL-28 melanoma): > 25 µM
TGI (SK-MEL-28 melanoma): > 25 µM
GI50 (SK-MEL-5 melanoma): > 25 µM
TGI (SK-MEL-5 melanoma): > 25 µM
GI50 (HCC-2998 colon): > 25 µM
TGI (HCC-2998 colon): > 25 µM
GI50 (OVCAR-5 ovarian): > 25 µM
TGI (OVCAR-5 ovarian): > 25 µM
GI50 (CAKI-1 renal): > 25 µM
TGI (CAKI-1 renal): > 25 µM
GI50 (K-562 leukemia): > 25 µM
TGI (K-562 leukemia): > 25 µM
GI50 (HCT-116 colon): > 25 µM
TGI (HCT-116 colon): > 25 µM
GI50 (HL-60(TB) leukemia): > 25 µM
TGI (HL-60(TB) leukemia): > 25 µM
GI50 (IGROV1 ovarian): > 25 µM
TGI (IGROV1 ovarian): > 25 µM
GI50 (NCI-H460 lung): > 25 µM
TGI (NCI-H460 lung): > 25 µM
GI50 (NCI-H522 lung): > 18.2 µM
TGI (NCI-H522 lung): > 25 µM
GI50 (SNB-19 CNS): > 25 µM
TGI (SNB-19 CNS): > 25 µM
GI50 (HOP-92 NSCLC): 0.425 µM
TGI (HOP-92 NSCLC): > 25 µM
